Experimental data from PubChem BioAssay (NCI).
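Abbreviation: GI50, concentration required for 50% inhibition of growth. TGI: total growth inhibition.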

Experiments:
Assay in all cases: NCI-60 cell line screen, 384-well format
[1] = test system: 786-0 renal
[2] = test system: LOX IMVI melanoma
[3] = test system: A549 NSCLC
[4] = test system: EKVX NSCLC
[5] = test system: NCI-H522 lung
[6] = test system: DU-145 prostate
[7] = test system: HT29 colon
[8] = test system: KM12 colon
[9] = test system: SN12C renal
[10] = test system: NCI-H322M lung
[11] = test system: M14 melanoma
[12] = test system: SF-268 CNS
[13] = test system: T-47D breast
[14] = test system: SW-620 colon
[15] = test system: HCC-2998 colon
[16] = test system: HCT-15 colon
[17] = test system: OVCAR-5 ovarian
[18] = test system: HS 578T breast
[19] = test system: K-562 leukemia
[20] = test system: OVCAR-4 ovarian
[21] = test system: OVCAR-8 ovarian
[22] = test system: HOP-62 NSCLC
[23] = test system: UACC-62 melanoma
[24] = test system: SK-OV-3 ovarian
[25] = test system: MCF7 breast
[26] = test system: MDA-MB-231 breast
[27] = test system: SNB-75 CNS
[28] = test system: MDA-MB-435 melanoma
[29] = test system: SF-295 CNS
[30] = test system: COLO 205 colon
[31] = test system: UACC-257 melanoma
[32] = test system: TK-10 renal
[33] = test system: HOP-92 NSCLC
[34] = test system: NCI-H460 NSCLC
[35] = test system: CAKI-1 renal
[36] = test system: SK-MEL-28 melanoma
[37] = test system: OVCAR-3 ovarian
[38] = test system: A498 renal
[39] = test system: SR leukemia
[40] = test system: SK-MEL-5 melanoma
[41] = test system: MALME-3M melanoma
[42] = test system: MOLT-4 leukemia
[43] = test system: MDA-MB-468 breast
[44] = test system: HL-60(TB) leukemia
[45] = test system: RXF 393 renal
[46] = test system: SF-539 CNS
[47] = test system: BT-549 breast
[48] = test system: PC-3 prostate
[49] = test system: NCI-H226 lung
[50] = test system: IGROV1 ovarian
[51] = test system: SNB-19 CNS
[52] = test system: NCI-H23 lung
[53] = test system: ACHN renal
[54] = test system: RPMI-8226 leukemia
[55] = test system: UO-31 renal
[56] = test system: CCRF-CEM leukemia
[57] = test system: NCI/ADR-RES ovarian

`[2H]C([2H])([2H])NC(=O)c1nnc(NC(=O)C2CC2)cc1Nc1cccc(-c2ncn(C)n2)c1OC` gave a GI50 [1] of 66.2 µM, a TGI [1] greater than 100 µM and a GI50 [2] of 25 µM. It also gave a TGI [2] greater than 100 µM, a GI50 [3] of 84.4 µM and a TGI [3] greater than 100 µM. The GI50 [4] was greater than 100 µM, the TGI [4] was greater than 100 µM and the GI50 [5] was 79.1 µM. It also gave a TGI [5] greater than 100 µM, a GI50 [6] of 16.4 µM and a TGI [6] greater than 100 µM. For the same compound, the GI50 [7] was greater than 100 µM, the TGI [7] was greater than 100 µM and the GI50 [8] was 30.2 µM. The TGI [8] was greater than 100 µM, the GI50 [9] was 32.6 µM and the TGI [9] was greater than 100 µM. It also gave a GI50 [10] of 23.3 µM, a TGI [10] greater than 100 µM and a GI50 [11] of 22.8 µM. The TGI [11] was greater than 100 µM, the GI50 [12] was greater than 100 µM and the TGI [12] was greater than 100 µM. For the same compound, the GI50 [13] was greater than 100 µM, the TGI [13] was greater than 100 µM and the GI50 [14] was 93.5 µM. For the same compound, the TGI [14] was greater than 100 µM, the GI50 [15] was greater than 100 µM and the TGI [15] was greater than 100 µM. The GI50 [16] was 12.9 µM, the TGI [16] was greater than 100 µM and the GI50 [17] was greater than 100 µM. The TGI [17] was greater than 100 µM, the GI50 [18] was 18 µM and the TGI [18] was greater than 100 µM. For the same compound, the GI50 [19] was 43.4 µM, the TGI [19] was greater than 100 µM and the GI50 [20] was greater than 100 µM. It also gave a TGI [20] greater than 100 µM, a GI50 [21] of 43.6 µM and a TGI [21] greater than 100 µM. The GI50 [22] was 25.1 µM, the TGI [22] was 84.9 µM and the GI50 [23] was 25.5 µM. For the same compound, the TGI [23] was greater than 100 µM, the GI50 [24] was 5.93 µM and the TGI [24] was 87.6 µM. The GI50 [25] was greater than 100 µM, the TGI [25] was greater than 100 µM and the GI50 [26] was 29.2 µM. The TGI [26] was greater than 100 µM, the GI50 [27] was 87.9 µM and the TGI [27] was greater than 100 µM. It also gave a GI50 [28] greater than 100 µM, a TGI [28] greater than 100 µM and a GI50 [29] of 33.2 µM. It also gave a TGI [29] greater than 100 µM, a GI50 [30] greater than 100 µM and a TGI [30] greater than 100 µM. For the same compound, the GI50 [31] was greater than 100 µM, the TGI [31] was greater than 100 µM and the GI50 [32] was greater than 100 µM. The TGI [32] was greater than 100 µM, the GI50 [33] was 25.4 µM and the TGI [33] was greater than 100 µM. It also gave a GI50 [34] of 21.3 µM, a TGI [34] greater than 100 µM and a GI50 [35] of 14.6 µM. The TGI [35] was greater than 100 µM, the GI50 [36] was 72.9 µM and the TGI [36] was greater than 100 µM. The GI50 [37] was 41.6 µM, the TGI [37] was greater than 100 µM and the GI50 [38] was 6.3 µM. The TGI [38] was greater than 100 µM, the GI50 [39] was 29.9 µM and the TGI [39] was greater than 100 µM. For the same compound, the GI50 [40] was 36.8 µM, the TGI [40] was greater than 100 µM and the GI50 [41] was 32.2 µM. For the same compound, the TGI [41] was greater than 100 µM, the GI50 [42] was 15.9 µM and the TGI [42] was 36.8 µM. The GI50 [43] was 13.3 µM, the TGI [43] was 42.3 µM and the GI50 [44] was 10.9 µM. For the same compound, the TGI [44] was 26.7 µM, the GI50 [45] was greater than 100 µM and the TGI [45] was greater than 100 µM. For the same compound, the GI50 [46] was 79.2 µM, the TGI [46] was greater than 100 µM and the GI50 [47] was greater than 100 µM. It also gave a TGI [47] greater than 100 µM, a GI50 [48] of 77.9 µM and a TGI [48] greater than 100 µM. The GI50 [49] was 43.9 µM, the TGI [49] was greater than 100 µM and the GI50 [50] was 26.4 µM. The TGI [50] was greater than 100 µM, the GI50 [51] was 87.4 µM and the TGI [51] was greater than 100 µM. The GI50 [52] was 43.7 µM, the TGI [52] was greater than 100 µM and the GI50 [53] was 16.6 µM. The TGI [53] was greater than 100 µM, the GI50 [54] was 3.93 µM and the TGI [54] was 27.6 µM. The GI50 [55] was greater than 100 µM, the TGI [55] was greater than 100 µM and the GI50 [56] was 16.6 µM. The TGI [56] was 48.6 µM, the GI50 [57] was 37.4 µM and the TGI [57] was greater than 100 µM.
